Consider 13 compounds from patent US20220146526A1, “METHOD FOR EVALUATING SAMPLE, ANALYSIS METHOD, METHOD FOR DETECTING DEGRADED SAMPLE, MARKER FOR DETECTING DEGRADED BLOOD PLASMA SAMPLE, AND MARKER FOR DETECTING DEGRADED SERUM SAMPLE” (SHIMADZU CORPORATION, priority 2019, published 2022).

Holding throughout (type): physicochemical, human
Data set [1] is described as follows: GC/MS of blood plasma sample: time from blood collection to centrifugation (Table A). The note with it: for Increase or decrease: detection intensity; for Increase or decrease / Rate of increase or decrease: blood collection to centrifugation; for Rate of increase or decrease: detection intensity relative to 1 at 15 minutes. The protocol:
(§1) At room temperature, 5 mL of blood from a healthy subject was taken into a blood-collecting vessel containing EDTA, and the blood-collecting vessel was inverted for mixing, then cooled, and allowed to stand at 4° C. Here, in order to investigate how the detection intensity of molecules contained in the sample was affected in a case where the time to cooling was set to 5 minutes or more as compared to that in a case where the time to cooling was set to 1 minute or less, preparations were performed under both the former condition and the latter condition. After standing, the blood sample was subjected to centrifugation under a condition of 4° C., 3000 rpm, and 15 minutes. […] After centrifugation, the blood-collecting vessel was left to stand at room temperature for 30 minutes, and the blood plasma was isolated during this 30 minutes. The obtained blood plasma sample was frozen and stored. Here, in order to investigate how the detection intensity of molecules contained in the sample was affected in cases where freezing and thawing was performed 4 times, 6 times, and 10 times after freezing as compared to that in a case where freezing and thawing was performed 2 times after freezing, freezing and thawing was performed under the respective conditions of 2, 4, 6, and 10 times.
(§2) Frozen blood plasma samples and serum samples were subjected to GC/MS or LC/MS. In GC/MS, the blood plasma samples and serum samples were subjected to methoxymation and trimethylsilylation and then introduced to GC-MS.
(§3) GC/MS was conducted using GCMS·TQ8040 (Shimadzu Corporation) that was a GC·MS equipped with AOC·20i (Shimadzu Corporation) as an autosampler.
(§4) Column: BPX5 (inner diameter of 0.25 mm, length of 30 m, and film thickness of 0.25 μm) (SGE)
(§5) Column temperature: maintained at 60° C. for 2 minutes, then raised at 15° C./min, and maintained at 330° C. for 3 minutes.
(§6) Inlet temperature: 250° C.
(§7) Carrier gas control mode: constant linear velocity of 39.0 cm/sec
(§8) Sample introduction method: split (split ratio of 30:1) Injection volume: 1 μL
(§9) Ionization method: electron ionization
(§10) Ionization current: 60 μA
(§11) Interface temperature: 280° C.
(§12) Ion source temperature: 200° C.
(§13) Mode: multiple reaction monitoring (MRM)
The rate of increase or decrease in Table A is the value of detection intensity relative to 1 that is the detection intensity in a case where the time from blood collection to centrifugation is set to 15 minutes.

The nature of data set [2]: GC/MS of blood plasma sample: number of times of freezing and thawing (Table C). The note with it: for Rate of increase or decrease: detection intensity relative to 1 at 2 times; for Increase or decrease: detection intensity; for Rate of increase or decrease (second value, decrease) / Rate of increase or decrease (first value, increase): different from individual to individual, relative to 1 at 2 times; for Rate of increase or decrease (second value, decrease): individuals with decrease; for Rate of increase or decrease (first value, increase): individuals with increase. The protocol:
as §1, §2, §3, §4, §5, §6, §7, §8, §9, §10, §11, §12, §13
The rate of increase or decrease in Table C is the value of detection intensity relative to 1 that is the detection intensity in a case where the number of times of freezing and thawing is set to 2 times.

Data set [3] in a line: GC/MS of serum sample: time from blood collection to centrifugation (Table G). The note with it: blood collection to centrifugation; for Rate of increase or decrease: detection intensity relative to 1 at 15 minutes; for Increase or decrease: detection intensity. An outline of the steps: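 Values express detection intensity as a ratio to the sample centrifuged 15 minutes after blood collection (taken as 1). Serum was derivatized by methoxymation and trimethylsilylation, then analysed by electron-ionization GC/MS using multiple reaction monitoring on a BPX5 column ramped from 60 to 330° C.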

Data set [4] can be described thus: GC/MS of serum sample: time from centrifugation to isolation (Table H). Also on record: key to Rate of increase or decrease / Rate of increase or decrease (first value, increase): detection intensity relative to 1 at 30 min centrifugation-to-isolation. Conditions: for Rate of increase or decrease: detection intensity relative to 1 at 30 minutes; for Increase or decrease: detection intensity. An outline of the steps: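 Values are GC/MS (EI, MRM) detection intensities of methoxymated/trimethylsilylated serum, normalised to 1 for the 30-min sample. Serum was isolated 30 min, 1 h or 6 h after room-temperature centrifugation (3500 rpm, 5 min) of blood.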

A short description of data set [5]: GC/MS of serum sample: number of times of freezing and thawing (Table I). Also on record: key to Rate of increase or decrease / Rate of increase or decrease (first value, increase): detection intensity relative to 2 freeze-thaw cycles = 1. The note with it: for Rate of increase or decrease: detection intensity relative to 1 at 2 times; for Number of times when compound is affected: detection intensity changed by 30% or more vs 2 times of freezing and thawing. An outline of the steps: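 Detection intensities are ratios to the value after two freeze–thaw cycles, which is set as 1, compared against 4, 6 and 10 cycles. Analysis used methoxymation and trimethylsilylation derivatization, then GC/MS with EI ionization and multiple reaction monitoring on a BPX5 column. Serum came from blood held at room temperature and spun at 3500 rpm for 5 min.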

Where [6] appears, read: freezing and thawing 6 times vs 2 times.
Setting [7] is: freezing and thawing 10 times vs 2 times.
[8] abbreviates: freezing and thawing 4 times vs 2 times.
[9] abbreviates: serum sample, GC/MS, detection intensity vs 2 times of freezing and thawing.

Molecules are shown by their SMILES. “And” between values parts separate entries of the source, which are not always exact repeats. Equal values may be shown once. Where a name gives a salt, the structure may show the parent alone.

In the case of `O=C[C@H](O)[C@@H](O)[C@H](O)CO` [Xylose], the Increase or decrease result in data set [1] (after 4 hours vs 15 minutes) is “Different from individual”; in data set [2] (setting [6]), “Decrease”; in data set [3] (after 4 hours vs 15 minutes) it was “Increase”; in data set [3] (after 8 hours vs 15 minutes), “Decrease”. The “Rate of increase or decrease (second value, decrease)” value in data set [1] (different from individual to individual, individuals with decrease, relative to 1 at 15 minutes, collection to centrifugation, after 4 hours) was determined as 0.69. For the same compound, in data set [1] (different from individual to individual, individuals with increase, relative to 1 at 15 minutes, collection to centrifugation, after 4 hours), the “Rate of increase or decrease (first value, increase)” value amounted to 1.68. Moreover, the “Rate of increase or decrease” value was found to be 0.68 in data set [2] (freezing and thawing 6 times); 1.47 in data set [3] (after 4 hours); 0.68 in data set [3] (after 8 hours).

In the case of `CCCCCCCCCCCCCCCCO` [1-Hexadecanol (cetanol), 1-Hexadecanol], the “Rate of increase or decrease” value was 0.60 in data set [1] (after 4 hours); 1.88 in data set [2] (freezing and thawing 10 times); 1.38 in data set [3] (after 12 hours); 1.36 in data set [4] (after 1 hour). Further, the Increase or decrease entry in data set [1] (after 4 hours vs 15 minutes) was “Decrease”; in data set [2] (setting [7]) it was “Increase”; in data set [3] (after 12 hours vs 15 minutes), “Increase”; in data set [4] (after 1 hour vs 30 minutes) it was “Increase”; in data set [5] (detection intensity, serum, GC/MS, freezing and thawing 10 times vs 2 times), “Different from individual”. In data set [5] (different from individual to individual, individuals with decrease, relative to 1 at 2 times, serum, GC/MS, freezing and thawing 10 times), the “Rate of increase or decrease (second value, decrease)” value worked out at 0.70. For the same compound, the “Rate of increase or decrease (first value, increase)” value in data set [5] (different from individual to individual, individuals with increase, relative to 1 at 2 times, serum, GC/MS, freezing and thawing 10 times) was determined as 1.34.

Take `O=C1O[C@H]([C@@H](O)CO)C(O)=C1O` [Ascorbic acid]: the “Rate of increase or decrease” value was determined as 1.77 in data set [1] (after 4 hours); 1.41 in data set [2] (freezing and thawing 4 times); 0.62 in data set [3] (after 4 hours). In addition, the Increase or decrease entry in data set [1] (after 4 hours vs 15 minutes) was “Increase”; in data set [2] (setting [8]) it was “Increase”; in data set [3] (after 4 hours vs 15 minutes), “Decrease”.

Take `OB(O)O` [Boric acid]: the “Rate of increase or decrease” value in data set [2] (freezing and thawing 4 times) is listed as 1.56; in data set [4] (after 1 hour) it was 2.06; in data set [5] (serum, GC/MS, freezing and thawing 4 times), 0.63. In addition, the Increase or decrease result in data set [2] (setting [8]) is “Increase”; in data set [4] (after 1 hour vs 30 minutes) it was “Increase”; in data set [5] (detection intensity, serum, GC/MS, freezing and thawing 4 times vs 2 times) it was “Decrease”.

Consider `CCCCCCCCCCCCCCCCCC(=O)OCC(O)CO` (stereo not drawn) [Monostearin], for which the “Rate of increase or decrease” value came out at 1.35 in data set [1] (after 12 hours); 0.67 in data set [2] (freezing and thawing 6 times); 1.98 in data set [3] (after 4 hours); 2.08 in data set [4] (after 6 hours); 0.60 in data set [5] (10 times of freezing and thawing). Moreover, the Increase or decrease entry in data set [1] (after 12 hours vs 15 minutes) was “Increase”; in data set [2] (setting [6]), “Decrease”; in data set [3] (after 4 hours vs 15 minutes), “Increase”; in data set [4] (after 6 hours vs 30 minutes), “Increase”; in data set [5] (setting [9]) it was “Decrease”. The “Number of times when compound is affected” value in data set [5] (serum sample, GC/MS) worked out at 10 times.

With `O=C[C@H](O)[C@@H](O)[C@@H](O)[C@H](O)C(=O)O` [Galacturonic acid], the “Rate of increase or decrease” value in data set [2] (freezing and thawing 4 times) is 1.44; in data set [3] (after 8 hours), 0.60 and 0.64; in data set [4] (after 1 hour), 1.87. Besides, the Increase or decrease result is given as “Increase” in data set [2] (setting [8]), “Decrease” in data set [3] (after 8 hours vs 15 minutes) and “Increase” in data set [4] (after 1 hour vs 30 minutes).

Consider `CCCCCCCCCCCCCCCCCCO` [Octadecanol], for which the “Rate of increase or decrease” value in data set [1] (after 4 hours) stood at 1.62; in data set [4] (after 1 hour) it was 2.08; in data set [5] (serum, GC/MS, freezing and thawing 6 times), 1.64. The Increase or decrease entry in data set [1] (after 4 hours vs 15 minutes) was “Increase”; in data set [2] (setting [6]), “Different from individual”; in data set [3] (after 4 hours vs 15 minutes), “Increase”; in data set [4] (after 1 hour vs 30 minutes), “Increase”; in data set [5] (detection intensity, serum, GC/MS, freezing and thawing 6 times vs 2 times), “Increase”. In addition, in data set [2] (freezing and thawing 6 times), the “Rate of increase or decrease (second value, decrease)” value is listed as 0.68. Moreover, the “Rate of increase or decrease (first value, increase)” value in data set [2] (freezing and thawing 6 times) turned out to be 1.63.

Regarding `O=C(O)[C@H](O)[C@H](O)[C@H](O)CO` [Ribonic acid], the “Rate of increase or decrease” value in data set [1] (after 4 hours) turned out to be 0.17; in data set [2] (freezing and thawing 4 times), 1.62; in data set [3] (after 12 hours), 1.46. Moreover, the Increase or decrease result in data set [1] (after 4 hours vs 15 minutes) is given as “Decrease”; in data set [2] (setting [8]) it was “Increase”; in data set [3] (after 12 hours vs 15 minutes) it was “Increase”.

In the case of `Nc1cc[nH]c(=O)n1` [Cytosine], the “Rate of increase or decrease” value in data set [1] (after 4 hours) is 1.50. Moreover, the Increase or decrease entry in data set [1] (after 4 hours vs 15 minutes) is given as “Increase”; in data set [2] (setting [6]), “Different from individual”. In addition, the “Rate of increase or decrease (second value, decrease)” value in data set [2] (freezing and thawing 6 times) was 0.62. Also, the “Rate of increase or decrease (first value, increase)” value in data set [2] (freezing and thawing 6 times) worked out at 1.93.

As to `NCCc1c[nH]c2ccccc12` [Tryptamine], the “Rate of increase or decrease” value in data set [2] (freezing and thawing 10 times) worked out at 0.69. Further, the Increase or decrease entry in data set [2] (setting [7]) was “Decrease”.

In the case of `O[C@H]1[C@H](O)[C@@H](O)[C@H](O)[C@@H](O)[C@@H]1O` [Scyllo-inositol], the “Rate of increase or decrease” value in data set [2] (freezing and thawing 6 times) amounted to 0.68; in data set [3] (after 8 hours), 0.66. Further, the Increase or decrease result in data set [2] (setting [6]) and in data set [3] (after 8 hours vs 15 minutes) was “Decrease” throughout.

As to `CCCCCC(=O)O` [Cabroic acid], the “Rate of increase or decrease” value in data set [2] (freezing and thawing 4 times) is listed as 1.58. For the same compound, the Increase or decrease entry in data set [2] (setting [8]) and in data set [5] (setting [9]) was “Increase” throughout. Further, the “Number of times when compound is affected” value in data set [5] (serum sample, GC/MS) turned out to be 10 times.

Regarding `O=S(=O)(O)Oc1c[nH]c2ccccc12` [Indoxyl sulfate], the “Rate of increase or decrease” value in data set [1] (after 12 hours) was 1.50; in data set [2] (freezing and thawing 6 times), 0.68. Besides, the Increase or decrease result in data set [1] (after 12 hours vs 15 minutes) was “Increase”; in data set [2] (setting [6]), “Decrease”.
